Results on eleven molecules are retold here after PubChem BioAssay (NCI).

Structures are written as SMILES.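 Tested at 5 concentrations; 48 h exposure; 96-well plates; endpoints linearly interpolated, else capped at highest concentration. TGI marks complete inhibition of growth.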 Some results are limits rather than exact numbers.

Some test systems named below: NCI-H522 lung; SF-295 CNS; PC-3 prostate; K-562 leukemia; HCT-116 colon; U251 CNS; SF-539 CNS; SR leukemia; TK-10 renal; SF-268 CNS; SN12C renal; KM12 colon; M14 melanoma; LOX IMVI melanoma; RPMI-8226 leukemia; HCT-15 colon; T-47D breast; RXF 393 renal; UO-31 renal; SK-OV-3 ovarian.
Experiment in all cases: NCI-60 cell line screen, 48 h

`O=C1CCCC1C(O)(C(F)(F)F)C(F)(F)F` (stereo not given): the TGI with NCI-H522 lung, in the test with SF-295 CNS, in the test on PC-3 prostate, in the test on K-562 leukemia, with HCT-116 colon and with U251 CNS was above 100 µM throughout. Further, the TGI with SF-539 CNS, in the test with SR leukemia, in the test with TK-10 renal, in the test on SF-268 CNS, with SN12C renal and in the test on KM12 colon was above 100 µM throughout. Further, the TGI in the test with M14 melanoma, in the test on LOX IMVI melanoma, in the test with RPMI-8226 leukemia, with HCT-15 colon, in the test with T-47D breast and in the test on RXF 393 renal was above 100 µM throughout. In the test with UO-31 renal, this molecule had a TGI above 100 µM.
`N#Cc1ccc(C(=O)/C=C/c2ccc(O)c(O)c2)cc1`: the TGI in the test on NCI-H522 lung was determined as 7.54 µM; in the test with SF-295 CNS, 33.9 µM; in the test on PC-3 prostate it was 30 µM; in the test on K-562 leukemia, 34 µM; in the test on HCT-116 colon it was 22.8 µM; in the test with U251 CNS, 26.2 µM. The TGI in the test on SF-539 CNS is 29.7 µM; with SK-OV-3 ovarian, above 57.7 µM; in the test on SR leukemia it was 6.27 µM; in the test with TK-10 renal, 27.6 µM; in the test on SF-268 CNS, 31.1 µM; in the test with SN12C renal it was 28.9 µM. The TGI with KM12 colon stood at 30.5 µM; in the test with M14 melanoma, 32.8 µM; in the test with LOX IMVI melanoma, 26.3 µM; with RPMI-8226 leukemia, 25.2 µM; with HCT-15 colon, 30.1 µM; in the test with T-47D breast, 31.2 µM. In addition, the TGI in the test on RXF 393 renal is 32.4 µM; with UO-31 renal, 25.1 µM.
As to `Cc1c(F)c(N)c2c(=O)cc(-c3ccc(N)c(F)c3)oc2c1F`, the TGI was 30.3 µM in the test with NCI-H522 lung; 43.2 µM with SF-295 CNS; 45.6 µM with PC-3 prostate; above 92.9 µM in the test with K-562 leukemia; 38.2 µM in the test on HCT-116 colon; 33.1 µM in the test on U251 CNS. In addition, the TGI was determined as 32.3 µM in the test on SF-539 CNS; 38.1 µM in the test with SK-OV-3 ovarian; 82.8 µM with SR leukemia; 6.72 µM with TK-10 renal; 76.7 µM with SF-268 CNS; 56.7 µM in the test with SN12C renal. Further, the TGI in the test with KM12 colon was above 100 µM; in the test with M14 melanoma, above 100 µM; in the test with LOX IMVI melanoma, 55.8 µM; in the test with RPMI-8226 leukemia, above 96.1 µM; in the test on HCT-15 colon it was above 100 µM; in the test with T-47D breast it was 16 µM. Also, the TGI is 41.6 µM in the test on RXF 393 renal and 60.1 µM in the test with UO-31 renal.
Take `CN(C)CCCNc1c(C#N)[n+]([O-])c2cc(Cl)ccc2[n+]1[O-]`: the TGI in the test on NCI-H522 lung is 14.1 µM; in the test with SF-295 CNS, above 49.1 µM; with PC-3 prostate it was above 41.3 µM; in the test with K-562 leukemia it was 20.8 µM; in the test with HCT-116 colon, 30 µM; with U251 CNS it was above 66.6 µM. The TGI in the test on SF-539 CNS is 47.4 µM; in the test with SK-OV-3 ovarian, above 67.1 µM; with SR leukemia, 5.28 µM; in the test with TK-10 renal, above 39.9 µM; with SF-268 CNS it was above 64.4 µM; in the test on SN12C renal it was 53.3 µM. The TGI in the test with KM12 colon stood at 26.9 µM; in the test with M14 melanoma, 37.6 µM; in the test with LOX IMVI melanoma, 56.9 µM; in the test on RPMI-8226 leukemia, 26.4 µM; in the test on HCT-15 colon it was 18.6 µM; with T-47D breast, 40.7 µM. In addition, the figures for the TGI in the test with RXF 393 renal and in the test with UO-31 renal were above 100 µM and above 46.3 µM, respectively.
Regarding `S=C1CSc2c(ccc3ccccc23)N1`, the TGI in the test with NCI-H522 lung, in the test on SF-295 CNS, with PC-3 prostate, with K-562 leukemia, in the test on HCT-116 colon and in the test with U251 CNS was above 100 µM each time. In addition, the TGI in the test on SK-OV-3 ovarian, in the test on SR leukemia, with TK-10 renal, in the test with SF-268 CNS, in the test with SN12C renal and in the test on KM12 colon was above 100 µM in each case. For the same molecule, the TGI in the test with M14 melanoma, with LOX IMVI melanoma, in the test on RPMI-8226 leukemia, in the test with HCT-15 colon, in the test on T-47D breast and in the test with RXF 393 renal was above 100 µM in each case. Besides, the TGI in the test on UO-31 renal is above 100 µM.
For `CCOc1cc2c(cc1O)CC[C@@H]1[C@@H]2CC[C@]2(C)C(N)CC[C@@H]12` (stereo not given in full), the TGI was determined as 11.9 µM in the test with NCI-H522 lung; 12.5 µM in the test on SF-295 CNS; 13.7 µM in the test with PC-3 prostate; 27.5 µM with K-562 leukemia; 12.6 µM in the test on HCT-116 colon; 9.37 µM in the test on U251 CNS. Besides, the TGI stood at 9.25 µM in the test on SF-539 CNS; 17.6 µM in the test on SK-OV-3 ovarian; 7 µM with SR leukemia; 15 µM in the test with TK-10 renal; 23.8 µM with SF-268 CNS; 20.5 µM with SN12C renal. For the same molecule, the TGI in the test with KM12 colon was 8.03 µM; in the test with M14 melanoma, 25.2 µM; in the test on LOX IMVI melanoma it was 10.9 µM; in the test on RPMI-8226 leukemia, 10 µM; with HCT-15 colon it was 13.8 µM; with T-47D breast it was 25.3 µM. Further, the values for the TGI in the test on RXF 393 renal and with UO-31 renal were 7.33 µM and 16.2 µM, respectively.
With `O=P1(c2ccccc2)C(c2ccccc2)=CC=C1c1ccccc1`, the TGI with NCI-H522 lung was 65.2 µM; with SF-295 CNS, above 100 µM; in the test on PC-3 prostate, 62.8 µM; in the test with K-562 leukemia, 22.4 µM; in the test on HCT-116 colon, above 100 µM; in the test on U251 CNS, 43.8 µM. The TGI is above 100 µM in the test with SF-539 CNS; above 100 µM in the test with SK-OV-3 ovarian; 52.7 µM in the test with SR leukemia; 60.1 µM in the test with TK-10 renal; above 100 µM with SF-268 CNS; above 100 µM with SN12C renal. The TGI was 50.1 µM in the test on KM12 colon; above 100 µM in the test with M14 melanoma; 37.8 µM with LOX IMVI melanoma; 19.4 µM with RPMI-8226 leukemia; 77.3 µM in the test with HCT-15 colon; above 100 µM in the test on T-47D breast. In addition, the TGI with RXF 393 renal and with UO-31 renal was above 100 µM in each case.
Regarding `C=C1C(=O)O[C@H]2[C@H](OC(C)=O)[C@@H](C)CCC/C(C)=C/CC[C@@]3(C)O[C@@H]3C[C@@H]12`, the TGI in the test with NCI-H522 lung was 3.9 µM; with SF-295 CNS, 28.5 µM; with PC-3 prostate, above 47.5 µM; in the test with K-562 leukemia, above 100 µM; with HCT-116 colon it was 6.83 µM; in the test with U251 CNS, 21.7 µM. The TGI was determined as 13.9 µM with SF-539 CNS; 30.5 µM in the test with SK-OV-3 ovarian; 6.02 µM in the test on SR leukemia; 5 µM with TK-10 renal; 14 µM in the test with SF-268 CNS; 4.05 µM in the test with SN12C renal. The TGI in the test on KM12 colon was 18.8 µM; with M14 melanoma it was above 40.4 µM; in the test on LOX IMVI melanoma it was 3.9 µM; with RPMI-8226 leukemia it was 6.5 µM; in the test on HCT-15 colon it was 10.1 µM; with T-47D breast it was 3.62 µM. Further, the TGI in the test with RXF 393 renal is 5.08 µM; with UO-31 renal it was 7.51 µM.
Take `Nc1[nH]c(=S)c2c(N)n[nH]c2c1C(=O)Nc1ccccc1`: the TGI in the test on NCI-H522 lung, in the test on PC-3 prostate, with K-562 leukemia, with HCT-116 colon, in the test with U251 CNS and in the test with SF-539 CNS was above 100 µM throughout. For the same molecule, the TGI in the test with SK-OV-3 ovarian, with SR leukemia, in the test with TK-10 renal, with SF-268 CNS, in the test on SN12C renal and in the test on KM12 colon was above 100 µM in each case. The TGI in the test on M14 melanoma, in the test with LOX IMVI melanoma, in the test with RPMI-8226 leukemia, with HCT-15 colon, in the test with T-47D breast and in the test with RXF 393 renal was above 100 µM each time. The TGI in the test with UO-31 renal was above 100 µM.
In the case of `OC1[C@H](O)CN(OCc2ccccc2)C[C@@H]1O` (stereo not given in full), the TGI with NCI-H522 lung, with SF-295 CNS, with PC-3 prostate, in the test with K-562 leukemia, in the test on HCT-116 colon and in the test with U251 CNS was above 100 µM each time. The TGI in the test with SF-539 CNS, in the test on SR leukemia, in the test on TK-10 renal, in the test with SF-268 CNS, with SN12C renal and in the test with KM12 colon was above 100 µM throughout. The TGI in the test on M14 melanoma, in the test on LOX IMVI melanoma, with RPMI-8226 leukemia, in the test with HCT-15 colon, in the test on T-47D breast and with RXF 393 renal was above 100 µM throughout. The molecule also registered a TGI in the test with UO-31 renal above 100 µM.
Turning to `CCOC(=O)[C@@H]1CCN2CN(c3ccc(OC)cc3)N=C(c3ccccc3)[C@@]12c1ccccc1`, the TGI was 49.5 µM with NCI-H522 lung; 77.1 µM in the test with SF-295 CNS; above 100 µM in the test on PC-3 prostate; above 100 µM in the test on K-562 leukemia; 40.2 µM in the test with HCT-116 colon; 79.6 µM in the test on U251 CNS. For the same molecule, the TGI in the test with SK-OV-3 ovarian is above 100 µM; in the test with SR leukemia, above 100 µM; in the test on TK-10 renal, above 100 µM; in the test with SF-268 CNS it was above 100 µM; with SN12C renal, 34.7 µM; in the test on KM12 colon, above 100 µM. Also, the TGI with M14 melanoma was 51.3 µM; in the test on LOX IMVI melanoma it was 29.6 µM; with RPMI-8226 leukemia, 82.6 µM; in the test on HCT-15 colon it was 80.6 µM; in the test with T-47D breast, 74.6 µM; in the test on RXF 393 renal it was 35.7 µM. The same molecule showed a TGI with UO-31 renal of 77.2 µM.
